Test results: patent US5726195A, “Aminoacyl adenylate mimics as novel antimicrobial and antiparasitic agents” (Cubist Pharmaceuticals, Inc., priority 1996, dated 1998)
Converted amounts (≈) assume the structure as drawn.

Key:
[1] = target: E. Coli. IleRS (isoleucyl-tRNA synthetase) (Escherichia coli, UniProt P00956); assay: Inhibition of isoleucyl-tRNA synthetase (aminoacylation of tRNA with [3H]isoleucine); format: biochemical; conditions: read-out: IC50 E.Coli. IleRS; E. coli enzyme; irreversible inhibitors: values are 50% of the active enzyme concentration
E. Coli. IleRS (isoleucyl-tRNA synthetase), sequence (P00956 whole entry): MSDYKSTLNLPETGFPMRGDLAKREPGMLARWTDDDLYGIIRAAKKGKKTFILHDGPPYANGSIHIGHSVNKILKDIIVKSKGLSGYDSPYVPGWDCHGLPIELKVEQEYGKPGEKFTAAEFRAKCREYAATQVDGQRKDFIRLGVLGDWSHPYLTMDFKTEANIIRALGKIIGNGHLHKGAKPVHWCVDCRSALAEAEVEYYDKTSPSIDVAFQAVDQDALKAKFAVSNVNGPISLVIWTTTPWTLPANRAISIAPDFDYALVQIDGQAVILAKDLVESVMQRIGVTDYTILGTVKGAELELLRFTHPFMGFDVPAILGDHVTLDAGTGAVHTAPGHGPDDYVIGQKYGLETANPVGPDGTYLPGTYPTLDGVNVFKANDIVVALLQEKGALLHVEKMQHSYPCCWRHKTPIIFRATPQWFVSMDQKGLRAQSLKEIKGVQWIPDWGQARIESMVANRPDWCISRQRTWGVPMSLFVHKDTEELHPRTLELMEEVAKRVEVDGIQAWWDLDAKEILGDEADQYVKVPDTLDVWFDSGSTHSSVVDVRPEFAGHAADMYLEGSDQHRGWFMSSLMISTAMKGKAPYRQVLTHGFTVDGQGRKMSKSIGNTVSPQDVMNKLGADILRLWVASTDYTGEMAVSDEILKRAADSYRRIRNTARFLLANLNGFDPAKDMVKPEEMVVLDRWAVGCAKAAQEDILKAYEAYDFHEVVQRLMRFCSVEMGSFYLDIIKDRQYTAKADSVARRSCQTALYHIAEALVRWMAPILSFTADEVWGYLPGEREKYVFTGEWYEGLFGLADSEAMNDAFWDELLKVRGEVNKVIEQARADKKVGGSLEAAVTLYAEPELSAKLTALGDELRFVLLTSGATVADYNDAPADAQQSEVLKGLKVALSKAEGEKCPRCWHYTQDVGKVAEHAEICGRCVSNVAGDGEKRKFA
Summary of the method: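 Enzyme (0.08-2.0 nM, preferably 0.4 nM) preincubated 20 min at 25° C. with compound, then reacted at 25° C. with 4 mM ATP, 5-20 μM [3H]isoleucine, 90 μM crude or 2 μM specific tRNA in HEPES pH 7.5. TCA-precipitable radioactivity counted; IC50 relative to uninhibited activity.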

[2] = tested on: B. subtilis ATCC 6633; assay: Whole cell antimicrobial screen, MIC; format: cell-based; conditions: Bacillus subtilis, ATCC6633
Summary of the method: (§1)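 NCCLS microdilution; 5×10^4 cells/well; 2-fold serial dilutions, 0.1-500 μg/mL final; DMSO ≤1% final; overnight, 30-37° C; OD read; MIC = lowest conc. with no growth.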

[3] = tested on: C. albicans ATCC 10231; assay: Whole cell antimicrobial screen, MIC; format: cell-based; conditions: Candida albicans, ATCC10231
Summary of the method: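 MIC = lowest compound concentration inhibiting growth, judged from optical density after overnight incubation at 30° C.-37° C. Inoculum was 5×10^4 cells per well in media such as Mueller-Hinton Broth, with twofold dilutions spanning 0.1 μg/mL-500 μg/mL.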

[4] = tested on: E. faecalis ATCC 33011; assay: Whole cell antimicrobial screen, MIC; format: cell-based; conditions: Enterococcus faecalis, ATCC33011
Summary of the method: as §1

[5] = tested on: E. faecium ATCC 6569; assay: Whole cell antimicrobial screen, MIC; format: cell-based; conditions: Enterococcus faecium, ATCC6569
Summary of the method: as §1

[6] = tested on: H. influenza ATCC 49247; assay: Whole cell antimicrobial screen, MIC; format: cell-based
Summary of the method: as §1

[7] = tested on: K. pneumonia ATCC 4352; assay: Whole cell antimicrobial screen, MIC; format: cell-based; conditions: Klebsiella pneumoniae, ATCC4352
Summary of the method: as §1

[8] = tested on: S. aureus ATCC 6538P; assay: Whole cell antimicrobial screen, MIC; format: cell-based; conditions: Staphylococcus aureus, ATCC6538P
Summary of the method: as §1

[9] = tested on: S. epidermidis ATCC 33501; assay: Whole cell antimicrobial screen, MIC; format: cell-based; conditions: Staphylococcus epidermidis, ATCC33501
Summary of the method: as §1

[10] = tested on: S. pneumonia ATCC 49619; assay: Whole cell antimicrobial screen, MIC; format: cell-based
Summary of the method: as §1

[11] = tested on: S. saprophyticus ATCC 35552; assay: Whole cell antimicrobial screen, MIC; format: cell-based; conditions: Staphylococcus saprophyticus, ATCC35552
Summary of the method: as §1

CC[C@H](C)[C@H](N)C(=O)NS(=O)(=O)OC[C@H]1O[C@@H](CCn2nnc(-c3ccc(Oc4ccccc4)cc3)n2)[C@H](O)[C@@H]1O [Compound X, [S-(R*,R*)]-3,6-anhydro-1,2-dideoxy-1-[5-(4-phenoxyphenyl)-2H-tetrazol-2-yl]-D-allo-heptitol 7-(2-amino-3-methyl-1-oxopentyl)sulfamate]
IC50 [1]: 1.3 nM | MIC [2]: 10 µg/mL (≈ 16.9 µM) | MIC [3]: > 500 µg/mL | MIC [4]: 300 µg/mL (≈ 508 µM) | MIC [5]: 10 µg/mL (≈ 16.9 µM) | MIC [6]: 100 µg/mL (≈ 169 µM) | MIC [7]: 50 µg/mL (≈ 84.7 µM) | MIC [8]: 10 µg/mL (≈ 16.9 µM) | MIC [9]: 2 µg/mL (≈ 3.39 µM) | MIC [10]: 25 µg/mL (≈ 42.3 µM) | MIC [11]: 5 µg/mL (≈ 8.47 µM)
